For 21 compounds, EC50 and Ki results are on record in patent US8530652B2, “Pyrrolopyrazoles, potent kinase inhibitors” (Agouron Pharmaceuticals, Inc., priority 2005, dated 2013).

In assay [1] the target is PAK4 kinase activity in whole cells (TR-293-KDG, modified HEK 293 overexpressing GEF-H1b and PAK4 KD) (Homo sapiens (Human), UniProt O96013). The experiment in a line: PAK4 cellular assay: sandwich ELISA of PAK4-dependent phosphorylation of GEF-H1b in TR-293-KDG cells. The conditions noted are these: doxycycline-induced, 3-hour exposure, phospho-GEF-H1b ELISA. The class given is cell-based. An excerpt:
A sandwich ELISA method was used to measure the PAK4 kinase activity in whole cells. The level of PAK4-dependent phosphorylation of GEF-H1b can be determined by monitoring the binding of a phosphospecific antibody to GEF-H1b. A modified HEK 293 cell line is used in the bioassay and it has been engineered to overexpress both GEF-H1b and the kinase domain (KD) of PAK4. The KD of PAK4 is inducible in this cell line by tetracycline (Trex system, Invitrogen). The name of this cell line has been designated TR-293-KDG. To establish a phosphorylation event on GEF-H1, cells are induced with doxycycline to express the PAK4 KD. […] Candidate substance effect is measured as the ability to block this phosphorylation event.
ELISA plate was prepared by pre-coating the plates with a capture antibody (α-HA-tag mouse monoclonal antibody), blocked with BSA, and washed in 0.1% tween 20 in tris-buffered saline (TBST). Tissue culture plates (precoated with poly-D-lysine) were seeded with TR-293-KDG cells. The TR-293-KDG Cells were induced to express the PAK4 KD with doxycycline overnight and subsequently & concomitantly treated with candidate substances or diluent for an additional 3-hour, continuous exposure. Cells were then lysed with a modified RIPA buffer supplemented with protease inhibitors. The fresh whole cell lysates were then added to the ELISA plate for 2-hours. Between all subsequent steps plates were washed 4 times with TBST. Detection antibody (recognizing the phospho-specific eptitope on GEF-H1b) was added for 1 hour, followed by addition of an enzyme linked goat α-rabbit secondary antibody for 45 minutes. […] EC50 values were calculated by sigmoid curve fitting using a four-parameter analysis.

The target in assay [2] is PAK4 kinase domain (PAK4 KD) (Homo sapiens (Human), UniProt O96013). In words: PAK4 kinase domain enzymatic assay (coupled PK/LDH, NADH absorbance at 340 nm). The class given is biochemical.
Chain of PAK4 kinase domain (PAK4 KD) (O96013 321-572): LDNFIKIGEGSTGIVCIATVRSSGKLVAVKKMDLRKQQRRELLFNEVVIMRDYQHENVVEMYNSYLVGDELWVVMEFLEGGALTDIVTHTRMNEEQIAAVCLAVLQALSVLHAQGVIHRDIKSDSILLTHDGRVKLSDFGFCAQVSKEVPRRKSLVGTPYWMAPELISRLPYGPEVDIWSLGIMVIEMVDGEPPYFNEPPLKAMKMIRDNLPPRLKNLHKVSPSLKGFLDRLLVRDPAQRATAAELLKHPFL
Where [3] appears, read: PAK4 kinase domain, 25 nM PAK4 KD, 0.04 mM ATP, pH 7.5.

SMILES strings stand for the structures. Like-named read-outs stand apart in the source and are kept apart here. Some results are limits rather than exact numbers.

Chain of PAK4 kinase activity in whole cells (TR-293-KDG, modified HEK 293 overexpressing GEF-H1b and PAK4 KD) (O96013 321-572): as above

In the case of `Cc1nc(Nc2n[nH]c3c2CN(C(=O)N[C@@H]2C[C@H]2c2ccccc2)C3(C)C)c2sccc2n1` [Example 32, 6,6-Dimethyl-3-[(2-methylthieno[3,2-d]pyrimidin-4-yl)amino]-N-[(1R,2S)-2-phenylcyclopropyl]-4,6-dihydropyrrolo[3,4-c]pyrazole-5(1H)-carboxamide], the concentration for a half-maximal effect (EC50) in assay [1] is 19 nM. The same compound registered a Ki in assay [2] (setting [3]) of 3.5 nM.
On to `CC1(C)c2[nH]nc(Nc3ncnc4sccc34)c2CN1C(=O)N[C@@H]1C[C@H]1c1ccccc1` [Example 50, 6,6-dimethyl-N-[(1R,2S)-2-phenylcyclopropyl]-3-(thieno[2,3-d]pyrimidin-4-ylamino)-4,6-dihydropyrrolo[3,4-c]pyrazole-5(1H)-carboxamide], for which the EC50 in assay [1] was determined as 340 nM. The Ki in assay [2] (setting [3]) amounted to 16 nM.
The like results for `CC1(C)c2[nH]nc(Nc3ncnc4ccsc34)c2CN1C(=O)N[C@@H]1C[C@H]1c1ccccc1` [Example 51, 6,6-dimethyl-N-[(1R,2S)-2-phenylcyclopropyl]-3-(thieno[3,2-d]pyrimidin-4-ylamino)-4,6-dihydropyrrolo[3,4-c]pyrazole-5(1H)-carboxamide] were, in that order, 31 nM and 18 nM.
The like results for `Cc1ncnc(Nc2n[nH]c3c2CN(C(=O)N[C@H](CN(C)C)c2ccccc2)C3(C)C)c1F` [Example 56, N-[(1S)-2-(dimethylamino)-1-phenylethyl]-3-[(5-fluoro-6-methylpyrimidin-4-yl)amino]-6,6-dimethyl-4,6-dihydropyrrolo[3,4-c]pyrazole-5(1H)-carboxamide] were, in that order, 570 nM and 240 nM.
`Cc1nc(Nc2n[nH]c3c2CN(C(=O)N[C@H](CN(C)C)c2ccccc2)C3(C)C)c2ccsc2n1` [Example 58, N-[(1S)-2-(dimethylamino)-1-phenylethyl]-6,6-dimethyl-3-[(2-methylthieno[2,3-d]pyrimidin-4-yl)amino]-4,6-dihydropyrrolo[3,4-c]pyrazole-5(1H)-carboxamide] gave a concentration giving a half-maximal response (EC50) in assay [1] of 2.5 nM. Affinity in assay [2] was put at a Ki of 14 nM.
In assay [1], `CCOc1ncc(F)c(Nc2n[nH]c3c2CN(C(=O)N[C@H](CN(C)C)c2ccccc2)C3(C)C)n1` [Example 59, N-[(1S)-2-(dimethylamino)-1-phenylethyl]-3-[(2-ethoxy-5-fluoropyrimidin-4-yl)amino]-6,6-dimethyl-4,6-dihydropyrrolo[3,4-c]pyrazole-5(1H)-carboxamide] gave an EC50 of 2.4 nM. This compound also displayed an inhibition constant (Ki) in assay [2] (setting [3]) of 170 nM.
The like results for `CN(C)C[C@@H](NC(=O)N1Cc2c(Nc3ccnc(C#N)n3)n[nH]c2C1(C)C)c1ccccc1` [Example 60, 3-[(2-cyanopyrimidin-4-yl)amino]-N-[(1S)-2-(dimethylamino)-1-phenylethyl]-6,6-dimethyl-4,6-dihydropyrrolo[3,4-c]pyrazole-5(1H)-carboxamide] were, in that order, below 3.9 nM and 40 nM.
The like results for `CN(C)C[C@@H](NC(=O)N1Cc2c(Nc3ncnc4sccc34)n[nH]c2C1(C)C)c1ccccc1` [Example 61, N-[(1S)-2-(dimethylamino)-1-phenylethyl]-6,6-dimethyl-3-(thieno[2,3-d]pyrimidin-4-ylamino)-4,6-dihydropyrrolo[3,4-c]pyrazole-5(1H)-carboxamide] were, in that order, 19 nM and 22 nM.
The like results for `Cc1cc2c(Nc3n[nH]c4c3CN(C(=O)N[C@H](CN(C)C)c3ccccc3)C4(C)C)ncnc2s1` [Example 62, N-[(1S)-2-(dimethylamino)-1-phenylethyl]-6,6-dimethyl-3-[(6-methylthieno[2,3-d]pyrimidin-4-yl)amino]-4,6-dihydropyrrolo[3,4-c]pyrazole-5(1H)-carboxamide] were, in that order, 15 nM and 15 nM.
In assay [1], `CN(C)C[C@@H](NC(=O)N1Cc2c(Nc3nc(C#N)nc4ccccc34)n[nH]c2C1(C)C)c1ccccc1` [Example 64, 3-[(2-cyanoquinazolin-4-yl)amino]-N-[(1S)-2-(dimethylamino)-1-phenylethyl]-6,6-dimethyl-4,6-dihydropyrrolo[3,4-c]pyrazole-5(1H)-carboxamide] returned an EC50 below 3.9 nM. Also, affinity in assay [2] (setting [3]) was put at a Ki of 3 nM.
The like results for `Cc1nccc(Nc2n[nH]c3c2CN(C(=O)N[C@H](CN(C)C)c2ccccc2)C3(C)C)n1` [Example 65, N-[(1S)-2-(dimethylamino)-1-phenylethyl]-6,6-dimethyl-3-[(2-methylpyrimidin-4-yl)amino]-4,6-dihydropyrrolo[3,4-c]pyrazole-5(1H)-carboxamide] were, in that order, 67.1 nM and 680 nM.
The like results for `COc1ncc(F)c(Nc2n[nH]c3c2CN(C(=O)N[C@H](CN(C)C)c2ccccc2)C3(C)C)n1` [Example 66, N-[(1S)-2-(dimethylamino)-1-phenylethyl]-3-[(5-fluoro-2-methoxypyrimidin-4-yl)amino]-6,6-dimethyl-4,6-dihydropyrrolo[3,4-c]pyrazole-5(1H)-carboxamide] were, in that order, below 3.9 nM and 170 nM.
The matching figures for `CN(C)C[C@@H](NC(=O)N1Cc2c(Nc3ncncc3F)n[nH]c2C1(C)C)c1ccccc1` [Example 67, N-[(1S)-2-(dimethylamino)-1-phenylethyl]-3-[(5-fluoropyrimidin-4-yl)amino]-6,6-dimethyl-4,6-dihydropyrrolo[3,4-c]pyrazole-5(1H)-carboxamide]: 20 nM and 280 nM.
Regarding `CN(C)C[C@@H](OC(=O)N1Cc2c(Nc3ncnc4ccsc34)n[nH]c2C1(C)C)c1ccccc1` [Example 68, (1S)-2-(dimethylamino)-1-phenylethyl 6,6-dimethyl-3-(thieno[3,2-d]pyrimidin-4-ylamino)-4,6-dihydropyrrolo[3,4-c]pyrazole-5(1H)-carboxylate], in assay [1], the 50% effective concentration (EC50) amounted to 20 nM. This compound showed a Ki in assay [2] (setting [3]) of 6.7 nM.
The matching figures for `Cc1nc(Nc2n[nH]c3c2CN(C(=O)O[C@H](CN(C)C)c2ccccc2)C3(C)C)c2ccsc2n1` [Example 69, (1S)-2-(dimethylamino)-1-phenylethyl 6,6-dimethyl-3-[(2-methylthieno[2,3-d]pyrimidin-4-yl)amino]-4,6-dihydropyrrolo[3,4-c]pyrazole-5(1H)-carboxylate]: 3 nM and 1.9 nM.
Turning to `CN(C)C[C@@H](OC(=O)N1Cc2c(Nc3ccnc(C#N)n3)n[nH]c2C1(C)C)c1ccccc1` [Example 70, (1S)-2-(dimethylamino)-1-phenylethyl 3-[(2-cyanopyrimidin-4-yl)amino]-6,6-dimethyl-4,6-dihydropyrrolo [3,4-c]pyrazole-5(1H)-carboxylate], the concentration giving a half-maximal response (EC50) in assay [1] was 1.9 nM. This compound yielded a Ki in assay [2] (setting [3]) of 8.8 nM.
In the case of `CCOc1ncc(F)c(Nc2n[nH]c3c2CN(C(=O)O[C@H](CN(C)C)c2ccccc2)C3(C)C)n1` [Example 72, (1S)-2-(dimethylamino)-1-phenylethyl 3-[(2-ethoxy-5-fluoropyrimidin-4-yl)amino]-6,6-dimethyl-4,6-dihydro-pyrrolo[3,4-c]pyrazole-5(1H)-carboxylate], the response in assay [1] was half-maximal at 4.4 nM (EC50). Also, affinity in assay [2] (setting [3]) was put at a Ki of 16 nM.
The like results for `Cc1nc(Nc2n[nH]c3c2CN(C(=O)O[C@H](CN(C)C)c2ccccc2)C3(C)C)c2sccc2n1` [Example 73, (1S)-2-(dimethylamino)-1-phenylethyl 6,6-dimethyl-3-[(2-methylthieno[3,2-d]pyrimidin-4-yl)amino]-4,6-dihydropyrrolo[3,4-c]pyrazole-5(1H)-carboxylate] were, in that order, below 3.9 nM and 1.6 nM.
The matching figures for `CN(C)C[C@@H](OC(=O)N1Cc2c(Nc3nc(C#N)nc4ccccc34)n[nH]c2C1(C)C)c1ccccc1` [Example 74, (1S)-2-(dimethylamino)-1-phenylethyl 3-[(2-cyanoquinazolin-4-yl)amino]-6,6-dimethyl-4,6-dihydropyrrolo[3,4-c]pyrazole-5(1H)-carboxylate]: below 3.9 nM and 3.6 nM.
The like results for `CN(C)C[C@@H](OC(=O)N1Cc2c(Nc3ncnc4sccc34)n[nH]c2C1(C)C)c1ccccc1` [Example 75, (1S)-2-(dimethylamino)-1-phenylethyl 6,6-dimethyl-3-(thieno[2,3-d]pyrimidin-4-ylamino)-4,6-dihydropyrrolo[3,4-c]pyrazole-5(1H)-carboxylate] were, in that order, below 3.9 nM and 5.2 nM.
For the compound `CN(C)C[C@@H](OC(=O)N1Cc2c(Nc3ccnc(C(F)(F)F)n3)n[nH]c2C1(C)C)c1ccccc1` [Example 76, (1S)-2-(dimethylamino)-1-phenylethyl 6,6-dimethyl-3-{[2-(trifluoromethyl)pyrimidin-4-yl]amino}-4,6-dihydropyrrolo[3,4-c]pyrazole-5(1H)-carboxylate], the EC50 in assay [1] was below 3.9 nM. The compound also yielded a Ki in assay [2] (setting [3]) of 8.3 nM.

One may read the EC50 as the concentration needed to bring the measured effect to its halfway point. The low end stands for greater potency, the high end for weaker potency. What is called Ki is a dissociation constant, usually derived from enzyme kinetics or from competition with a known ligand. A higher Ki goes with lower affinity.
